Measured values taken from ChEMBL document CHEMBL5380799, “Comprehensive Peptide Cyclization Examination Yields Optimized APP Scaffolds with Improved Affinity toward Mint2” (J Med Chem, 2023).
Blank lines part the entries; values can stand above or below the compound they belong to. *1 amine or outer side, *2 acyl side, *3 side chain or, on linkers, in order; H or OH if unused. Where a SMILES comes first, the peptide text is derived from it. Bridges are numbered along the chain shown (N, C = ends). Triazole bridges read from a SMILES are 1,4-linked. [ ]: non-standard residue; d: D form. The star is where a group is joined. Perfluorobiphenyl(4,4') = Fc1c(F)c([*:1])c(F)c(F)c1-c1c(F)c(F)c([*:2])c(F)c1F; Pyridine(2,6-diCH2) = c1cc(C[*:1])nc(C[*:2])c1; Lys(N3) = [N-]=[N+]=NCCCC[C@H](N)C(=O)O; NH(CH2CH2O)2(CH2)6Cl = ClCCCCCCOCCOCCN*; Orn(N3) = [N-]=[N+]=NCCC[C@H](N)C(=O)O; pXylylene = c1cc(C[*:2])ccc1C[*:1]; S8 = C=CCCCCCC[C@](C)(N)C(=O)O; Suc = O=C(CCC(=O)[*:2])[*:1]; S5 = C=CCCC[C@](C)(N)C(=O)O; Hpra = C#CCC[C@H](N)C(=O)O; Pra = C#CC[C@H](N)C(=O)O

Key:
[1] = tested on: Streptomyces griseus protease; test: Stability of compound in PBS at pH 7.4 assessed as Streptomyces griseus protease mediated degradation by measuring half life at 100 uM measured after 120 mins by RP UPLC analysis; type: ADME
[2] = Binding affinity to N-terminal hexahistidine-tagged recombinant human Mint2-PARM (364 to 570 residues) in presence of probe [(TAMRA)-NNG-QNGYENPTYKFFEQMQN] by fluorescense polarization assay
[3] = Drug uptake in human HeLa cells assessed as drug penetration incubated for 4 hrs by CA-TAMRA based CAPA assay; type: ADME, cell-based
proteinase K = proteinase K (Engyodontium album, UniProt P06873); test: Stability of compound in PBS at pH 7.4 assessed as Parengyodontium album proteinase K mediated degradation by measuring half life at 100 uM measured after 120 mins by RP UPLC analysis; type: ADME
[4] = Binding affinity to N-terminal hexahistidine-tagged recombinant human Mint2-PARM (364 to 570 residues) by ITC method
[5] = Metabolic stability in human plasma assessed as half life at 500 uM incubated for 480 mins by RP UPLC analysis; type: ADME, cell-free
trypsin = test: Stability of compound in PBS at pH 7.4 assessed as bovine pancreas trypsin mediated degradation by measuring half life at 100 uM measured after 120 mins by RP UPLC analysis; type: ADME, tissue-based, Bos taurus; details: cattle
Homo sapiens = species on record: Homo sapiens; test: Binding affinity to N-terminal hexahistidine-tagged recombinant human Mint2-PARM (364 to 570 residues) assessed as change in entropy by ITC method
SH-SY5Y = test: Cytotoxicity against human SH-SY5Y cells assessed as reduction in cell viability at 100 uM incubated for 48 hrs by MTT assay; type: toxicity, cell-based

proteinase K, sequence (P06873 whole entry, the tested form may be a part): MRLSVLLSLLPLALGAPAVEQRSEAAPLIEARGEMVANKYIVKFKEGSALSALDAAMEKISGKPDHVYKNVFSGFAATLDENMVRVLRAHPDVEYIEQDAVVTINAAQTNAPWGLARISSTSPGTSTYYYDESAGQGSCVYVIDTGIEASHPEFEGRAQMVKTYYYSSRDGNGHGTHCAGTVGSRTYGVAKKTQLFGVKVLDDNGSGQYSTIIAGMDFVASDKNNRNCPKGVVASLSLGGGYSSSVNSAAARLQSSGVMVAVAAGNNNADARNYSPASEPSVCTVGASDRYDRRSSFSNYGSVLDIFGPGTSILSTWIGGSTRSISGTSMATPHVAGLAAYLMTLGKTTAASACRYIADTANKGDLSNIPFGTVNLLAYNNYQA

Compound: NCCCC[C@H]1NC(=O)[C@@H](Cc2ccc(O)cc2)NC(=O)[C@H](NC(=O)[C@@H]2CCCN2C(=O)[C@@H](CC(N)=O)NC(=O)[C@H](CCC(=O)O)NC(=O)[C@H](Cc2ccc(O)cc2)NC(=O)CNC(=O)[C@H](N)CC(N)=O)CC(=O)NCC[C@H](C(=O)N[C@H](CCC(=O)O)C(=O)O)NC(=O)[C@@H](Cc2ccccc2)NC1=O
Ki [2]: 214 µM

Compound: C[C@@]1(C(=O)N[C@H](CCC(=O)O)C(=O)O)CCC/C=C\CCC[C@](C)(NC(=O)[C@@H]2CCCN2C(=O)[C@H](CC(N)=O)NC(=O)[C@H](CCC(=O)O)NC(=O)[C@H](Cc2ccc(O)cc2)NC(=O)CNC(=O)[C@H](CC(N)=O)NC(=O)CCC(=O)NCCOCCOCCCCCCCl)C(=O)N[C@@H](Cc2ccc(O)cc2)C(=O)N[C@@H](CCCCN)C(=O)N[C@@H](Cc2ccccc2)C(=O)N1
EC50 [3]: 77.9 µM

Compound: NCCCC[C@@H]1NC(=O)[C@H](Cc2ccc(O)cc2)NC(=O)[C@@H](NC(=O)[C@@H]2CCCN2C(=O)[C@H](CC(N)=O)NC(=O)[C@H](CCC(=O)O)NC(=O)[C@H](Cc2ccc(O)cc2)NC(=O)CNC(=O)[C@H](CC(N)=O)NC(=O)CCC(=O)NCCOCCOCCCCCCCl)CCSCc2ccc(cc2)CSCC[C@@H](C(=O)N[C@H](CCC(=O)O)C(=O)O)NC(=O)[C@H](Cc2ccccc2)NC1=O
EC50 [3]: 14.5 µM

Compound: NCCCC[C@@H]1NC(=O)[C@H](Cc2ccc(O)cc2)NC(=O)[C@@H](NC(=O)[C@H]2CCCN2C(=O)[C@H](CC(N)=O)NC(=O)[C@@H](CCC(=O)O)NC(=O)[C@@H](Cc2ccc(O)cc2)NC(=O)CNC(=O)[C@@H](N)CC(N)=O)CCSCc2ccc(cc2)CSCC[C@@H](C(=O)N[C@@H](CCC(=O)O)C(=O)O)NC(=O)[C@H](Cc2ccccc2)NC1=O
TdeltaS (Homo sapiens): -2.03 kcal/mol

Compound: NCCCC[C@H](NC(=O)[C@H](Cc1ccc(O)cc1)NC(=O)[C@H](CS)NC(=O)[C@@H]1CCCN1C(=O)[C@H](CC(N)=O)NC(=O)[C@H](CCC(=O)O)NC(=O)[C@H](Cc1ccc(O)cc1)NC(=O)CNC(=O)[C@@H](N)CC(N)=O)C(=O)N[C@@H](Cc1ccccc1)C(=O)N[C@@H](CS)C(=O)N[C@@H](CCC(=O)O)C(=O)O (H-NGYENPCYKFCE-OH)
Ki [2]: 21.4 µM

Compound: NCCCC[C@@H]1NC(=O)[C@H](Cc2ccc(O)cc2)NC(=O)[C@@H](NC(=O)[C@@H]2CCCN2C(=O)[C@H](CC(N)=O)NC(=O)[C@H](CCC(=O)O)NC(=O)[C@H](Cc2ccc(O)cc2)NC(=O)CNC(=O)[C@@H](N)CC(N)=O)CSCc2cccc(n2)CSC[C@@H](C(=O)N[C@@H](CCC(=O)O)C(=O)O)NC(=O)[C@H](Cc2ccccc2)NC1=O (H-NGYENPCYKFCE-OH; linker 7-11 via Pyridine(2,6-diCH2))
Ki [2]: 6.5 µM

Compound: NCCCC[C@@H]1NC(=O)[C@H](Cc2ccc(O)cc2)NC(=O)[C@@H](NC(=O)[C@@H]2CCCN2C(=O)[C@H](CC(N)=O)NC(=O)[C@H](CCC(=O)O)NC(=O)[C@H](Cc2ccc(O)cc2)NC(=O)CNC(=O)[C@@H](N)CC(N)=O)CCCn2cc(nn2)CC[C@@H](C(=O)N[C@@H](CCC(=O)O)C(=O)O)NC(=O)[C@H](Cc2ccccc2)NC1=O (H-NGYENP[Orn(N3)]YKF[Hpra]E-OH; triazole 7-11)
Ki [2]: 64.6 µM

Compound: C[C@@H](O)[C@H](NC(=O)[C@@H]1CCCN1C(=O)[C@H](CC(N)=O)NC(=O)[C@H](CCC(=O)O)NC(=O)[C@H](Cc1ccc(O)cc1)NC(=O)CNC(=O)[C@H](CC(N)=O)NC(=O)CCC(=O)NCCOCCOCCCCCCCl)C(=O)N[C@@H](Cc1ccc(O)cc1)C(=O)N[C@@H](CCCCN)C(=O)N[C@@H](Cc1ccccc1)C(=O)N[C@@H](Cc1ccccc1)C(=O)N[C@@H](CCC(=O)O)C(=O)O ({NH(CH2CH2O)2(CH2)6Cl-Suc}-NGYENPTYKFFE-OH)
EC50 [3]: 42 µM

Continued, in another order:

half-life at 100 µM [1]: > 2 h
Ki [2]: 0.3 µM
EC50 [3]: 14.5 µM
half-life at 100 µM (proteinase K): > 2 h
Kd [4]: 1.04 µM
half-life at 500 µM [5]: 1.5 h
half-life at 100 µM (trypsin): > 2 h
Compound: NCCCC[C@@H]1NC(=O)[C@H](Cc2ccc(O)cc2)NC(=O)[C@@H](NC(=O)[C@@H]2CCCN2C(=O)[C@H](CC(N)=O)NC(=O)[C@H](CCC(=O)O)NC(=O)[C@H](Cc2ccc(O)cc2)NC(=O)CNC(=O)[C@@H](N)CC(N)=O)CCSCc2ccc(cc2)CSCC[C@@H](C(=O)N[C@@H](CCC(=O)O)C(=O)O)NC(=O)[C@H](Cc2ccccc2)NC1=O

TdeltaS (Homo sapiens): -1.44 kcal/mol
half-life at 100 µM [1]: > 2 h
Ki [2]: 0.5 µM
EC50 [3]: 33.3 µM
half-life at 100 µM (proteinase K): > 2 h
Kd [4]: 0.24 µM
half-life at 500 µM [5]: 2.02 h
half-life at 100 µM (trypsin): > 2 h
Compound: C[C@@]1(C(=O)N[C@@H](CCC(=O)O)C(=O)O)CCC/C=C\CCC[C@](C)(NC(=O)[C@@H]2CCCN2C(=O)[C@H](CC(N)=O)NC(=O)[C@H](CCC(=O)O)NC(=O)[C@@H](Cc2ccc(O)cc2)NC(=O)CNC(=O)[C@H](N)CC(N)=O)C(=O)N[C@@H](Cc2ccc(O)cc2)C(=O)N[C@@H](CCCCN)C(=O)N[C@@H](Cc2ccccc2)C(=O)N1

Ki [2]: 0.9 µM
Compound: NCCCC[C@@H]1NC(=O)[C@H](Cc2ccc(O)cc2)NC(=O)[C@@H](NC(=O)[C@@H]2CCCN2C(=O)[C@H](CC(N)=O)NC(=O)[C@H](CCC(=O)O)NC(=O)[C@H](Cc2ccc(O)cc2)NC(=O)CNC(=O)[C@@H](N)CC(N)=O)CSc2c(F)c(F)c(c(F)c2F)-c2c(F)c(F)c(c(F)c2F)SC[C@@H](C(=O)N[C@@H](CCC(=O)O)C(=O)O)NC(=O)[C@H](Cc2ccccc2)NC1=O (H-NGYENPCYKFCE-OH; linker 7-11 via Perfluorobiphenyl(4,4'))

Ki [2]: 0.4 µM
Compound: NCCCC[C@@H]1NC(=O)[C@H](Cc2ccc(O)cc2)NC(=O)[C@@H](NC(=O)[C@@H]2CCCN2C(=O)[C@H](CC(N)=O)NC(=O)[C@H](CCC(=O)O)NC(=O)[C@H](Cc2ccc(O)cc2)NC(=O)CNC(=O)[C@@H](N)CC(N)=O)CSCc2ccc(cc2)CSC[C@@H](C(=O)N[C@@H](CCC(=O)O)C(=O)O)NC(=O)[C@H](Cc2ccccc2)NC1=O (H-NGYENPCYKFCE-OH; linker 7-11 via pXylylene)

half-life at 100 µM [1]: 0.45 h
Ki [2]: 1 µM
EC50 [3]: 77.9 µM
half-life at 100 µM (proteinase K): > 2 h
Kd [4]: 5.77 µM
half-life at 500 µM [5]: 1.18 h
half-life at 100 µM (trypsin): > 2 h
Compound: NCCCC[C@@H]1NC(=O)[C@H](Cc2ccc(O)cc2)NC(=O)[C@@H](NC(=O)[C@@H]2CCCN2C(=O)[C@H](CC(N)=O)NC(=O)[C@H](CCC(=O)O)NC(=O)[C@H](Cc2ccc(O)cc2)NC(=O)CNC(=O)[C@@H](N)CC(N)=O)CCCCNC(=O)C[C@@H](C(=O)N[C@@H](CCC(=O)O)C(=O)O)NC(=O)[C@H](Cc2ccccc2)NC1=O (H-NGYENPKYKFDE-OH; lactam 7-11)

half-life at 100 µM [1]: 0.333 h
Ki [2]: 1.2 µM
EC50 [3]: 42.9 µM
half-life at 100 µM (proteinase K): 0.467 h
Kd [4]: 1 µM
half-life at 500 µM [5]: 0.675 h
half-life at 100 µM (trypsin): > 2 h
Compound: NCCCC[C@@H]1NC(=O)[C@H](Cc2ccc(O)cc2)NC(=O)[C@@H](NC(=O)[C@@H]2CCCN2C(=O)[C@H](CC(N)=O)NC(=O)[C@H](CCC(=O)O)NC(=O)[C@H](Cc2ccc(O)cc2)NC(=O)CNC(=O)[C@@H](N)CC(N)=O)CCCCn2cc(nn2)C[C@@H](C(=O)N[C@@H](CCC(=O)O)C(=O)O)NC(=O)[C@H](Cc2ccccc2)NC1=O (H-NGYENP[Lys(N3)]YKF[Pra]E-OH; triazole 7-11)

Ki [2]: 0.8 µM
Compound: C[C@@]1(C(=O)N[C@@H](CCC(=O)O)C(=O)O)CCCCCC/C=C/CCC[C@](C)(NC(=O)[C@@H]2CCCN2C(=O)[C@H](CC(N)=O)NC(=O)[C@H](CCC(=O)O)NC(=O)[C@H](Cc2ccc(O)cc2)NC(=O)CNC(=O)[C@@H](N)CC(N)=O)C(=O)N[C@@H](Cc2ccc(O)cc2)C(=O)N[C@@H](CCCCN)C(=O)N[C@@H](Cc2ccccc2)C(=O)N1 (H-NGYENP[S5]YKF[S8]E-OH; staple (E) 7-11)

Ki [2]: 2.3 µM
Compound: C[C@@]1(C(=O)N[C@@H](CCC(=O)O)C(=O)O)CCC/C=C\CCCCCC[C@](C)(NC(=O)[C@@H]2CCCN2C(=O)[C@H](CC(N)=O)NC(=O)[C@H](CCC(=O)O)NC(=O)[C@H](Cc2ccc(O)cc2)NC(=O)CNC(=O)[C@@H](N)CC(N)=O)C(=O)N[C@@H](Cc2ccc(O)cc2)C(=O)N[C@@H](CCCCN)C(=O)N[C@@H](Cc2ccccc2)C(=O)N1 (H-NGYENP[S8]YKF[S5]E-OH; staple (Z) 7-11)

Ki [2]: 4 µM
half-life at 100 µM (trypsin): 0.43 h
Compound: H-NGYENPTYKFFE-OH
Activity (SH-SY5Y): 20%
